Data taken from patent US11931347B2, “Method of screening for agents for differentiating stem cells” (MINERVA BIOTECHNOLOGIES CORPORATION, priority 2015, dated 2024).

Assays:
[1] = system: T47D breast cancer cells; assay: cancer cell migration, invasion assay (Platypus/Oris system); type: cell-based, human; conditions: FIG. 140
Procedure: We then tested an expanded panel of agents, including agents known to inhibit cancer growth or migration (FIG. 17) (Horm et al., 2012; Meng & Yue, 2014; Zhen et al., 2014), which is characteristic of aggressive or metastatic cancers. We also synthesized a series of novel small molecules, tested them in the stem cell drug screening assay, and then synthesized analogs of the best hits. These small molecules are pictured in FIGS. 18-27. Both the known compounds and the novel compounds were tested in the stem cell drug screening assay. The effects of the small molecules on naïve versus primed state stem cells are shown in the photographs of FIGS. 29-72. The small molecules pictured in FIGS. 17-27 and the biologicals were also tested in a cancer cell migration assay. A structure activity relationship table is seen in FIG. 28. Potent cancer cell migration is characteristic of cancer cell invasion of other tissues and of metastasis. Typical migration assays involve coating a cell culture plate with fibronectin, collagen or the like, plating cancer cells and making a scar across through the cells and measuring the time it takes for the cancer cells to invade the void space. An alternative approach that gives more reliable data is the Platypus System which is a special multi-well cell culture plate with a juxtaposed set of plugs that block off a circle in the center of each well. Cancer cells are plated while the plugs are in place, then they are removed after the cells attach to the plate surface. […] A bar graph summarizing the results of the known anti-migration compounds compared to the anti-MUC1* Fab E6 and the first few small molecules synthesized is shown in FIG. 73. The effect of two novel small molecules MN1186 and MN1194, compared to the known anti-migration molecule SU11274, is shown in FIG. 75A-75U. FIG. 75V is a graph showing the measured inhibition of cancer cell migration at time 0, 24 hours or 48 hours for a number of compounds. […] FIG. 75X is a graph showing how IC50's of the small molecules of the invention were measured and calculated.
Percent inhibition of cancer cell migration was performed in a wound healing assay. The Percent area that the invading cancer cells occupied, in the presence of a drug candidate compared to the controls, was quantified by Image J cell software which enables cell counting from photographs. IC50's were calculated by performing migration experiments at several compound concentrations and then applying Hill's equation. Inhibition of cancer cell proliferation was quantified by automated cell counting in the presence or absence of a drug candidate. Here, the potency of the drug candidate was simply scored 4 for the highest degree of inhibition and 0 for the lowest. […] The effect of each drug candidate was scored 0-4, with 4 being the highest in inhibiting cell proliferation (FIG. 28).
(§1) For the cancer cell migration experiment cancer cells were plated at varying densities into an Oris Cell Migration Assay Collagen-1 coated 96-well plate (Platypus Technologies LLC, Madison, Wis.). The Collagen-1 coated 96-well plate incorporates a specific vacuum plug which attaches to the bottom of each well, creating an area in which the cells cannot grow into. Once the cells have been plated at high densities into each well, they are allotted an 18-24 hour time period to attach to the bottom of the wells. Post-24 hour plugs are removed from the plate and then small molecule analogs are added to the wells. Images are taken of each well and represent time 0 (T=0) for each well. Images are taken of the wells at the 24, 48, 72, 96 and 120 hour time points. Data analysis is conducted using the images taken at these specific time point. Images are imported into ImageJ (Rasband, W. S., ImageJ, U. S. National Institutes of Health, Bethesda, Md., USA, http://imagej.nih.gov/ij/, 1997-2016.) and the area remaining free of cells is calculated. […]

[2] = system: DU145 prostate cancer cells; assay: cancer cell migration assay with Fabs and N-10 peptide; type: cell-based; conditions: FIG. 140
Procedure: (§2) The cancer sub-types that were tested were CHL-1 melanoma (MUC1*^+/NME7^+/NME7-X1^+), A2058 melanoma (MUC1*^+/NME7AB^+/NME7-X1^++), SK-OV-3 ovarian cancer (MUC1*^+/NME7^+/NME7-X1^+), A549 lung cancer (MUC1*^LO), T47D breast cancer (MUC1*^+++/NME7AB^+++/NME7-X1^+++), DU145 (MUC1*^++/NME7AB^+++/NME7-X1^+++) prostate cancer and PC-3 (MUC1*^−/NME7AB^+++/NME7-X1^+++) prostate cancer cells.
as §1, with “Data analysis is conducted using the images taken at these specific time point.” left out

[3] = system: PC-3 prostate cancer cells; assay: as above; type: cell-based; conditions: FIG. 140
Procedure: as §2
as §1, with “Data analysis is conducted using the images taken at these specific time point.” left out

[4] = system: MUC1* extracellular domain - NME1 dimers / NME7AB interaction; assay: direct binding (gold nanoparticle) assay of MUC1*-NME interaction; design: species or system human; conditions: previously shown
From the text: WO2009/042815 discloses that in a direct binding assay a series of carboline molecules inhibited the interaction between the extracellular domain of MUC1* and NME proteins, especially NME1 dimers and NME7AB. […] We tested a panel of ten small molecules, including three carbolines (FIG. 1), and biologicals for their ability to inhibit naïve stem cell pluripotency or growth compared to primed state stem cells.
Most of the novel compounds of the invention are carbolines or carboline-like molecules. […] However, in our nanoparticle assay, we can only determine that a compound disrupts the interaction between MUC1* extracellular domain peptide and NME1 dimers or NME7AB. We cannot tell if the compound does so by binding to MUC1* or its ligand. Recall that our compound hits are first identified in the stem cell drug screening assay for their ability to inhibit stem cell pluripotency or proliferation. […]
Recall that we had previously shown that some carbolines inhibited the binding of ligands NME1 or NME7AB to the extracellular domain of the MUC1* growth factor receptor. The assay we used was a gold nanoparticle assay that only gives a readout when the targeted interaction is disrupted, so it could not determine whether the carboloines disrupted binding of MUC1* to its ligands by binding to the ligand, NME7AB, or to MUC1*. […]

“N-10 peptide: truncated MUC1* extracellular domain peptide QFNQYKTEAASRYNLTISDVSVSDVPFPFSAQSGA (SEQ ID NO:4) (N-10 peptide of PSMGFR in which ten amino acids at the N-terminus has been removed)” was tested, and the “inhibition of migration of T47D cells by Fabs and peptide” value [1] was “inhibited migration”, the “inhibition of migration of DU145 prostate cancer cells by Fabs and peptide” value [2] was “inhibited migration” and the “inhibition of migration of PC-3 cells by Fabs and peptide” value [3] was “only the N-10 peptide inhibited migration”. For the same substance, the “competitive inhibition of NME ligand binding to MUC1* extracellular domain” value [4] was “inhibits their binding to their cognate receptors including the MUC1* extracellular domain”.
